Assay [1] concerns Staphylococcus aureus. Briefly: Antibacterial activity against Staphylococcus aureus at 10 ug/ml relative to control. The assay is classed as functional.
The subject of assay [2] is Staphylococcus aureus. Briefly: Antibacterial activity against Staphylococcus aureus at 40 ug/ml relative to control. Format: functional.

Calls of active or inactive are those of the source. The calls are words filed in the database; no cut-off is given here.

Take `CC(C)=CC[C@@]12CCN(C)[C@@H]1Nc1ccccc12` (racemic) [listing 1 of 2 here]: the outcome in assay [1] was inactive. In the case of `COC(=O)N1CC[C@@]2(CC=C(C)C)c3ccccc3N(CC=C(C)C)[C@@H]12` (racemic), the result in assay [2] and in assay [1] was inactive. `CC(C)=CCN1c2ccccc2[C@]2(CC=C(C)C)CCN(C)[C@H]12` (racemic) [(-)-DEBROMOFLUSTRAMINE B] came in with an Activity in assay [2] of 30%. `CC(C)=CC[C@@]12CCN(C)[C@@H]1Nc1ccccc12` (racemic) [listing 2 of 2 here]: in assay [2], the Activity is listed as 85%. As for `CC(C)=CC[C@@]12CCN(C)[C@@H]1Nc1ccccc12`, the Activity in assay [2] is 99%; in assay [1] it was 50%.
